Laboratory results reported in US10738028B2, “Spiro three-membered ring, spiro five-membered ring peptide deformylase inhibitor and use thereof in antibacteria and anti-tumor” (priority 2016, dated 2020).

Tests used:
Format in all cases: cell-based
[1] = test system: Enterococcus faecium (EFM); assay: MIC, two-fold agar dilution (CLSI), clinical isolates
Method in brief: (§1)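 Samples are serially diluted two-fold in agar following CLSI guidance. Plates are then inoculated with the tested strains. The lowest inhibiting concentration is recorded as MIC.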

[2] = test system: methicillin-sensitive Staphylococcus aureus (MSSA); assay: as above
Method in brief: as §1

[3] = test system: Moraxella catarrhalis (BCA); assay: as above
Method in brief: as §1

[4] = test system: methicillin-resistant Staphylococcus aureus (MRSA); assay: as above
Method in brief: as §1

[5] = test system: Enterococcus faecalis (EFA); assay: as above
Method in brief: as §1

[6] = test system: Escherichia coli (including ESBLs, non-ESBLs); assay: as above
Method in brief: as §1

[7] = test system: methicillin-resistant Staphylococcus epidermidis (MRSE); assay: as above
Method in brief: as §1

[8] = test system: Streptococcus pneoumoniae (SPN); assay: as above
Method in brief: as §1

[9] = test system: methicillin-sensitive Staphylococcus epidermidis (MSSE); assay: as above
Method in brief: as §1

[10] = test system: HCT-116 colorectal cancer cell line; assay: CCK-8 proliferation inhibition; settings: concentration of 30 μM, 72 hours, CCK-8
Method in brief: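 Proliferation over 72 hours of compound treatment was measured with CCK-8 against a 1‰ DMSO control.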

[11] = test system: A549 lung cancer cell line; assay: CCK-8 proliferation inhibition; settings: Homo sapiens, A549, 72 h, concentration of 30 μM
Method in brief: (§2)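 Plating at 2000 cells/well, then incubation overnight at 37° C. Next, a range of compound concentrations for 72 hours (control 1‰ DMSO). Finally, medium decanted and CCK-8 diluted 1:10 added.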

[12] = test system: MGC-803 gastric cancer cell line; assay: CCK-8 proliferation inhibition; settings: Homo sapiens, MGC-803, 72 h, concentration of 30 μM
Method in brief: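 Using media specific to each line (1640 for MGC-803 and Jurkat, F12 for PC3, DMEM high glucose for MCF-7, each with 10% newborn bovine serum), cells at 2000/well were treated for 72 h with serially formulated compounds, then assessed with CCK-8 diluted 1:10.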

[13] = test system: BEL-7402 liver cancer cell line; assay: CCK-8 proliferation inhibition; settings: concentration of 30 μM
Method in brief: as §2

CCCC[C@H](CC(=O)NO)C(=O)N1CC2(CC2)C[C@H]1C(=O)Nc1nc(C)cs1 [Example 51, (S)-5-((R)-2-(2-(hydroxyamino)-2-oxoethyl)hexanoyl)-N-(4-methylthiazol-2-yl)-5-spiro[2.4]heptane-6-carboxamide]
Anti-bacterial activity (MIC), strain EFM 15-1 ([1]; clinical isolate EFM 15-1): 2 µg/mL
Anti-bacterial activity (MIC), strain EFM 15-2 ([1]; clinical isolate EFM 15-2): 2 µg/mL
Anti-bacterial activity (MIC), strain EFM 15-3 ([1]; clinical isolate EFM 15-3): 0.5 µg/mL
Anti-bacterial activity (MIC), strain EFM 15-4 ([1]; clinical isolate EFM 15-4): 2 µg/mL
Anti-bacterial activity (MIC), strain EFM 15-5 ([1]; clinical isolate EFM 15-5): 1 µg/mL
Anti-bacterial activity (MIC), strain EFM 15-6 ([1]; clinical isolate EFM 15-6): 2 µg/mL
Anti-bacterial activity (MIC), strain MSSA 15-3 ([2]; clinical isolate MSSA 15-3): 0.25 µg/mL
Anti-bacterial activity (MIC), strain MSSA 15-4 ([2]; clinical isolate MSSA 15-4): 0.125 µg/mL
Anti-bacterial activity (MIC), strain MSSA 15-5 ([2]; clinical isolate MSSA 15-5): 0.06 µg/mL
Anti-bacterial activity (MIC), strain MSSA 15-6 ([2]; clinical isolate MSSA 15-6): 0.5 µg/mL
Anti-bacterial activity (MIC), strain BCA 14-1 ([3]; clinical isolate BCA 14-1): 2 µg/mL
Anti-bacterial activity (MIC), strain BCA 14-4 ([3]; clinical isolate BCA 14-4): 2 µg/mL
Anti-bacterial activity (MIC), strain BCA 14-5 ([3]; clinical isolate BCA 14-5): 0.5 µg/mL
Anti-bacterial activity (MIC), strain BCA 14-6 ([3]; clinical isolate BCA 14-6): 1 µg/mL
Anti-bacterial activity (MIC), strain BCA 14-7 ([3]; clinical isolate BCA 14-7): 0.5 µg/mL
Anti-bacterial activity (MIC), strain BCA 14-8 ([3]; clinical isolate BCA 14-8): 1 µg/mL
Anti-bacterial activity (MIC), strain BCA 14-10 ([3]; clinical isolate BCA 14-10): 0.5 µg/mL
Anti-bacterial activity (MIC), strain MRSA 15-1 ([4]; clinical isolate MRSA 15-1): 0.25 µg/mL
Anti-bacterial activity (MIC), strain MRSA 15-2 ([4]; clinical isolate MRSA 15-2): 1 µg/mL
Anti-bacterial activity (MIC), strain MRSA 15-3 ([4]; clinical isolate MRSA 15-3): 0.2 µg/mL
Anti-bacterial activity (MIC), strain MRSA 15-4 ([4]; clinical isolate MRSA 15-4): 0.5 µg/mL
Anti-bacterial activity (MIC), strain EFA 15-1 ([5]; clinical isolate EFA 15-1): 8 µg/mL
Anti-bacterial activity (MIC), strain EFA 15-2 ([5]; clinical isolate EFA 15-2): 8 µg/mL
Anti-bacterial activity (MIC), strain EFA 15-3 ([5]; clinical isolate EFA 15-3): 2 µg/mL
Anti-bacterial activity (MIC), strain EFA 15-4 ([5]; clinical isolate EFA 15-4): 8 µg/mL
Anti-bacterial activity (MIC), strain EFA 15-5 ([5]; clinical isolate EFA 15-5): 8 µg/mL
Anti-bacterial activity (MIC), strain EFA 15-6 ([5]; clinical isolate EFA 15-6): 8 µg/mL
Anti-bacterial activity (MIC), strain EFA 15-9 ([5]; clinical isolate EFA 15-9): 8 µg/mL
Anti-bacterial activity (MIC), strain ECO+ 15-1 ([6]; clinical isolate ECO+ 15-1): 16 µg/mL
Anti-bacterial activity (MIC), strain ECO+ 15-2 ([6]; clinical isolate ECO+ 15-2): > 32 µg/mL
Anti-bacterial activity (MIC), strain ECO+ 15-3 ([6]; clinical isolate ECO+ 15-3): > 32 µg/mL
Anti-bacterial activity (MIC), strain ECO+ 15-4 ([6]; clinical isolate ECO+ 15-4): 32 µg/mL
Anti-bacterial activity (MIC), strain ECO− 15-1 ([6]; clinical isolate ECO− 15-1): > 32 µg/mL
Anti-bacterial activity (MIC), strain ECO− 15-2 ([6]; clinical isolate ECO− 15-2): > 32 µg/mL
Anti-bacterial activity (MIC), strain ECO− 15-3 ([6]; clinical isolate ECO− 15-3): > 32 µg/mL
Anti-bacterial activity (MIC), strain ECO− 15-4 ([6]; clinical isolate ECO− 15-4): > 32 µg/mL
Anti-bacterial activity (MIC), strain MRSE 15-1 ([7]; clinical isolate MRSE 15-1): 0.06 µg/mL
Anti-bacterial activity (MIC), strain MRSE 15-2 ([7]; clinical isolate MRSE 15-2): 0.25 µg/mL
Anti-bacterial activity (MIC), strain MRSE 15-3 ([7]; clinical isolate MRSE 15-3): 0.25 µg/mL
Anti-bacterial activity (MIC), strain MRSE 15-7 ([7]; clinical isolate MRSE 15-7): 0.25 µg/mL
Anti-bacterial activity (MIC), strain SPN 16-2 ([8]; clinical isolate SPN 16-2): 8 µg/mL
Anti-bacterial activity (MIC), strain SPN 16-4 ([8]; clinical isolate SPN 16-4): 0.5 µg/mL
Anti-bacterial activity (MIC), strain MSSE 15-3 ([9]; clinical isolate MSSE 15-3): 0.125 µg/mL
Anti-bacterial activity (MIC), strain MSSE 15-4 ([9]; clinical isolate MSSE 15-4): 0.125 µg/mL
Anti-bacterial activity (MIC), strain MSSE 15-5 ([9]; clinical isolate MSSE 15-5): 0.06 µg/mL
Anti-bacterial activity (MIC), strain MSSE 15-6 ([9]; clinical isolate MSSE 15-6): 0.06 µg/mL
inhibition at 30 µM ([10]; Homo sapiens, HCT-116, 72 h, read-out: HCT116 inhibition rate/%): > 50%
HCT116 inhibition rate/% ([10]; 30 µM): 65%
inhibition at 30 µM [11]: 44%
inhibition at 30 µM [12]: 40%
inhibition at 30 µM ([13]; Homo sapiens, Bel-7402, 72 h): > 50%
Inhibition of proliferation, Liver cancer BEL-7402 ([13]; 72 hours, 30 µM): 68%
